# Assay results taken from paper PMC11484510, “Antibacterial activity of structurally diverse natural prenylated isobavachalcone derivatives” (RSC Advances, 2024).
# Entries after “also recorded” stand apart in the source; their conditions may differ. Like-named read-outs stand apart in the source and are kept apart here.
# Tests used:
# MRSA ATCC 15187 [1] = assay: MBC, plating on MHA; type: cell-based, Methicillin-resistant S. aureus; conditions: Staphylococcus aureus; more than 99.9% of the cells killed; read-out: Minimum bactericidal concentration (MBC) MRSA
# Text: (§1) The bacterial strains S. aureus ATCC 29213, MRSA ATCC 15187, E. coli ATCC 25922, and P. aeruginosa ATCC 27853 were obtained from ATCC (American Type Culture Collection). Cation-adjusted Mueller–Hinton broth (MHB; Becton–Dickinson, Cockeysville, MD) was used to determine the minimum inhibitory concentration (MIC). Mueller–Hinton agar (MHA; Becton–Dickinson) was used for minimum bactericidal concentration (MBC) studies. Alamar blue (Himedia) was used to detect the MIC value.
# MBC is defined as the lowest concentration of the compound at which more than 99.9% of the cells were killed compared with the growth control. The minimum compound concentration at which no visible bacterial growth was observed was taken as the Minimum Bactericidal Concentration (MBC).[50]
# S. aureus ATCC 29213 [2] = assay: Time-kill assay; type: cell-based
# S. aureus [3] = assay: Combinational study (checkerboard microdilution) with standard drugs; type: cell-based; conditions: S. aureus
# Procedure: The Fractional Inhibitory Concentration Index (FICI) was calculated for each test compound and reference drug to find the combinational effect.
# In a 96-well flat bottom plate, the reference drug with 4× MIC was serially diluted horizontally. The test compounds with 4× MIC were serially diluted two-fold outside the plate in 1.5 mL Eppendorf's using Mueller Hinton Broth (MHB). These two serially diluted compounds were combined to create drug-compound combinations in the plate. The reference drug (horizontally) and tested compounds (vertically) alone were serially diluted for MIC determination. 100 μL of the standardized bacterial inoculum with a turbidity equivalent to a 0.5 McFarland standard were diluted 1 : 100 in Mueller Hinton Broth and inoculated in the plates. The plates were incubated for 24 hours at 37 °C. After incubation, 10 μL of freshly prepared Alamar blue (Himedia) was added to each well of the plate, and the plates were further incubated at 37 °C for 30 minutes. After incubation, the plates were visually observed. […] The FICI was calculated using the formula FICI = FIC of compound + FIC of drug. The calculation followed is FICI (CA/(MICA)) + (CB/(MICB)), where CA is the MIC of the compound in combination, CB is the MIC of the drug in combination, and MICA and MICB are the MIC values of individual compounds and drugs, respectively. The range selection followed the interpretation criteria. The FICI range of 0.5 to 4 indicates indifference, ≤ or =0.5 indicates synergy and >4 indicates antagonism.[57]
# MRSA ATCC 15187 [4] = assay: MIC, broth microdilution (CLSI), Alamar blue; type: cell-based, Methicillin-resistant S. aureus; conditions: MRSA ATCC 15187, 24 hours at 37 °C, read-out: Minimum inhibitory concentration (MIC) MRSA
# Text: as §1
# (§2) The antibacterial activity of the compounds against S. aureus ATCC 29213, MRSA ATCC 15187, E. coli ATCC 25922, and P. aeruginosa ATCC 27853 was determined through a broth microdilution method according to the guidelines of the Clinical and Laboratory Standards Institute (CLSI).[50] […] Growth control and media control were employed along with 2% DMSO as vehicle control.
# (§3) In a 96-well flat bottom plate, the test compounds were two-fold serially diluted in Mueller Hinton Broth (MHB). The final concentrations of the compounds ranged from 100 to 0.08 μM. 100 μL of standardized bacterial inoculum with turbidity equivalent to 0.5 McFarland standard (1.5 × 10^8 CFU mL^−1) was diluted 1 : 100 (1.5 × 10^6 CFU mL^−1) in Mueller Hinton Broth and inoculated in the plates.[51] The plates were incubated for 24 hours at 37 °C. After incubation, 10 μL of freshly prepared Alamar blue (Himedia) was added to each well of the plate, and plates were further incubated at 37 °C for 30 minutes. After incubation, the fluorescence was measured at excitation/emission of 540–570/580–610 nm. The percentage inhibition and viability were calculated for the controls, and the Gompertz curve was utilized to estimate the minimum inhibitory concentration.
# S. aureus [5] = assay: Cell integrity analysis by PI staining; type: cell-based; conditions: 1× MIC and 2× MIC, 30 minutes, compared to the untreated cells
# Procedure: Propidium iodide (PI) indicates cell integrity, emitting a red fluorescence signal. PI's polar and hydrophilic nature impedes its entrance within active bacterial cells, but within perforated dead cells, it can easily bind to nucleic acid (DNA/RNA).[32,60]S. aureus bacterial cells were incubated overnight at 37 °C and diluted further 1 : 100 in Mueller Hinton Broth (MHB). The diluted culture was grown until its OD600 reached 0.5. […] Vancomycin was used as a drug control at 1× MIC, while untreated bacterial cells were used as growth control. The samples were centrifuged at 5000 rpm speed at 4 °C temperature for 10 minutes, and the pellet was washed two times using phosphate-buffered saline pH-7.4 (PBS). To stain the sample (dead cells), 3 μL PI of 20.0 mM concentration was added to the 1 mL solution (pellet resuspended in PBS) and incubated for 15 minutes. To remove the dye, the samples were centrifuged again and washed with PBS once. The final pellet was resuspended in 1 mL of PBS, and 30 μL of each undiluted sample was used to obtain fluorescence imaging. The cells were observed under fluorescence microscopy.[61]
# S. aureus ATCC 29213 [6] = assay: MIC, broth microdilution (CLSI), Alamar blue; type: cell-based; conditions: S. aureus ATCC 29213, 24 hours at 37 °C, read-out: Minimum inhibitory concentration (MIC) S. aureus
# Text: as §1, §2, §3
# E. coli ATCC 25922 = assay: MIC, broth microdilution (CLSI), Alamar blue; type: cell-based; conditions: E. coli ATCC 25922, 24 hours at 37 °C, read-out: Minimum inhibitory concentration (MIC) E. coli
# Text: as §1, §2, §3
# P. aeruginosa ATCC 27853 = assay: MIC, broth microdilution (CLSI), Alamar blue; type: cell-based; conditions: P. aeruginosa ATCC 27853, 24 hours at 37 °C, read-out: Minimum inhibitory concentration (MIC) P. aeruginosa
# Text: as §1, §2, §3
structure (smiles),measurement,setting,value
"CC(C)=CCc1c(O)ccc2c1O/C(=C\c1ccc(O)cc1)C2=O [IBC-3, (Z)-6-hydroxy-2-(4-hydroxybenzylidene)-7-(3-methylbut-2-en-1-yl)benzofuran-3(2H)-one]",MBC,MRSA ATCC 15187 [1],25 µM
same,CFU count of S. aureus ATCC 29213 in time-kill study,"S. aureus ATCC 29213 [2]; 2× MIC and 4× MIC, with increasing time (up to 24 h)",below the detection limit
same,Time-kill profile,"S. aureus ATCC 29213 [2]; MIC, 2× MIC, 4× MIC, 1 h to 24 h, 37 °C",concentration-dependent killing effect; also recorded: concentration and time-dependent killing effects
same,MIC combination (compound),S. aureus [3]; MIC of the compound in combination with ciprofloxacin,5 µM
same,MIC combination (compound),S. aureus [3]; MIC of the compound in combination with vancomycin,5 µM
same,MIC,"S. aureus [3]; Staphylococcus aureus, checkerboard, substance alone, read-out: MIC alone",10 µM
same,Outcome of combination,S. aureus [3]; compound with ciprofloxacin,Indifference (The FICI range of 0.5 to 4 indicates indifference)
same,∑ FICI,S. aureus [3]; compound with ciprofloxacin,1
same,∑ FICI,S. aureus [3]; compound with vancomycin,0.5
same,MIC,MRSA ATCC 15187 [4],6 µM
same,MIC,MRSA ATCC 15187 [4]; Staphylococcus aureus,6 µM
same,PI red fluorescence (cell integrity),S. aureus [5],notably increased intensity of red fluorescence
same,MIC,S. aureus ATCC 29213 [6],10 µM
same,MIC,"S. aureus ATCC 29213 [6]; Staphylococcus aureus, ATCC29213",10 µM
same,MIC,E. coli ATCC 25922,23 µM
same,MIC,"E. coli ATCC 25922; Escherichia coli, ATCC25922",23 µM
same,MIC,P. aeruginosa ATCC 27853,24 µM
same,MIC,"P. aeruginosa ATCC 27853; Pseudomonas aeruginosa, ATCC27853, 24 h",24 µM
